Data as given in ChEMBL document CHEMBL4800731, “Data for DCP probe JNJ-65355394” (2021).
The source made the active and inactive calls. The calls are words filed in the database; no cut-off is given here.

Legend:
[1] = molecular target: Somatostatin receptor (Mus musculus) (UniProt P30935+O08858+P30875+P30873+P49660); assay: mSST Cerep panel; format: protein assay
[2] = molecular target: T1, 5-hydroxytryptamine receptor 1A (Homo sapiens) (UniProt P08908); assay: h5HT1A Cerep panel
T1 sequence (whole entry): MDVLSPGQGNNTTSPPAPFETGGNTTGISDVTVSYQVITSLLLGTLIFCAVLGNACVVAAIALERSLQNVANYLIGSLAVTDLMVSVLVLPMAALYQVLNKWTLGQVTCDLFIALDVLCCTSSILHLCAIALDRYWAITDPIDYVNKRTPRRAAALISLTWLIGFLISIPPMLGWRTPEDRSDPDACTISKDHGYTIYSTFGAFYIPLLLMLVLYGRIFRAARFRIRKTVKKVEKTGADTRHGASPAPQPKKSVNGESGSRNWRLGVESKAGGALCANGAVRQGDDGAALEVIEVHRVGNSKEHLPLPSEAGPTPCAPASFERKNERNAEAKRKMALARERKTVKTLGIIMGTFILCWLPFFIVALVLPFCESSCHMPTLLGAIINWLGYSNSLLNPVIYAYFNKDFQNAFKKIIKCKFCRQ

[3] = molecular target: Sodium-dependent noradrenaline transporter (Homo sapiens) (UniProt P23975); assay: hNET Cerep panel
Chain of Sodium-dependent noradrenaline transporter (Homo sapiens) (P23975 whole entry): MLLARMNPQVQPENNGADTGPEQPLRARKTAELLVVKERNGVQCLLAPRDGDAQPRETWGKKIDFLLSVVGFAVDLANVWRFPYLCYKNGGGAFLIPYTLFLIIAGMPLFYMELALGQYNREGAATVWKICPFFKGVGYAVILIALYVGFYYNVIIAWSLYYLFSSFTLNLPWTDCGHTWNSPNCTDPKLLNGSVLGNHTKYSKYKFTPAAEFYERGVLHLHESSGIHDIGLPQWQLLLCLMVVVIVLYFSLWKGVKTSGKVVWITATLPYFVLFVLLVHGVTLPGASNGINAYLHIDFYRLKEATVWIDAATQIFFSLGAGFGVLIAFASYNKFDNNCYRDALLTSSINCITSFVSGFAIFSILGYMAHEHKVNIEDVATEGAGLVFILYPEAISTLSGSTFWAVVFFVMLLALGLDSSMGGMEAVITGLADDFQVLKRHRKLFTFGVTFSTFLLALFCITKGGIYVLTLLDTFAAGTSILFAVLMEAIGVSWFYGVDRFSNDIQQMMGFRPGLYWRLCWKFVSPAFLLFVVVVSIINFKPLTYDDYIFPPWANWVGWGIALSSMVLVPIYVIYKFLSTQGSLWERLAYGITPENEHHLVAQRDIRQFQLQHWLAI

[4] = molecular target: Voltage-gated inwardly rectifying potassium channel KCNH2 (Homo sapiens, UniProt Q12809); assay: hERG Cerep panel
[5] = molecular target: Melanocortin receptor 4 (Homo sapiens) (UniProt P32245); assay: hMC4 Cerep panel
Chain of Melanocortin receptor 4 (Homo sapiens) (P32245 whole entry): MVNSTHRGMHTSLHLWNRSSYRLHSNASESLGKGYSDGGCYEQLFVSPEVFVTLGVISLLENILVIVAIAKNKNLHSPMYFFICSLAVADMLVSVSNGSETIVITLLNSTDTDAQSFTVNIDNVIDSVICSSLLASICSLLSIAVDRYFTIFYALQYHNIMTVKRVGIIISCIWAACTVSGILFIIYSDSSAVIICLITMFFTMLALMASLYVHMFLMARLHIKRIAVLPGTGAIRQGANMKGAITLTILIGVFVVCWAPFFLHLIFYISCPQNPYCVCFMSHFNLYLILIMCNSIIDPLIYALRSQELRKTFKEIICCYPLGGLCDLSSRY

Protein O-GlcNAcase [6] = molecular target: T2, Protein O-GlcNAcase (Homo sapiens, UniProt O60502); assay: Fluorescence-based enzymatic assay
T2 sequence (O60502 whole entry): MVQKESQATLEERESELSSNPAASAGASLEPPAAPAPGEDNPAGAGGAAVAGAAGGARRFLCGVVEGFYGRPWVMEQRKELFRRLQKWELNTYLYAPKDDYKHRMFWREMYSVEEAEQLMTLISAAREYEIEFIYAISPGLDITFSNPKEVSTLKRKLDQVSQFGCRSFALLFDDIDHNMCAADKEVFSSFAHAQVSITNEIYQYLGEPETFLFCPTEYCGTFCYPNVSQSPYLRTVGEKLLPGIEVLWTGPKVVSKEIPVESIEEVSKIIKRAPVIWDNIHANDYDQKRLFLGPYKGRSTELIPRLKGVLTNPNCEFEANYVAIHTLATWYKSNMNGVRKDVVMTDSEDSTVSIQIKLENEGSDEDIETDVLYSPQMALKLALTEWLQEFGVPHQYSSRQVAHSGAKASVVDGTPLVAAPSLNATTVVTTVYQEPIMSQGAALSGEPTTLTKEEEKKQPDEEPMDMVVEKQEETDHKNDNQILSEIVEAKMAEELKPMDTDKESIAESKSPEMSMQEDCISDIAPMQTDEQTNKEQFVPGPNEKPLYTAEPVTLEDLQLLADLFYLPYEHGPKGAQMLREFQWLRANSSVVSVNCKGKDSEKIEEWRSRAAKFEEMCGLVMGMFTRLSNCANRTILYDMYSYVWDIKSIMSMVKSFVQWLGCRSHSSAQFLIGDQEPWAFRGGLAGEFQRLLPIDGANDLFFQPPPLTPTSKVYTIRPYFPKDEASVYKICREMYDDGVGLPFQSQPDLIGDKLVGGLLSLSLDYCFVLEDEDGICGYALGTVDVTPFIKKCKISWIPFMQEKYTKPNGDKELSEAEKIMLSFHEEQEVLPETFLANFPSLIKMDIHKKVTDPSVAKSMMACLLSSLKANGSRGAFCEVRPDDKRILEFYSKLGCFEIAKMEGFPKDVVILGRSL

[7] = molecular target: 5-hydroxytryptamine receptor 1B (Homo sapiens) (UniProt P28222); conditions: Compound concentration 10.0 uM
Chain of 5-hydroxytryptamine receptor 1B (Homo sapiens) (P28222 whole entry): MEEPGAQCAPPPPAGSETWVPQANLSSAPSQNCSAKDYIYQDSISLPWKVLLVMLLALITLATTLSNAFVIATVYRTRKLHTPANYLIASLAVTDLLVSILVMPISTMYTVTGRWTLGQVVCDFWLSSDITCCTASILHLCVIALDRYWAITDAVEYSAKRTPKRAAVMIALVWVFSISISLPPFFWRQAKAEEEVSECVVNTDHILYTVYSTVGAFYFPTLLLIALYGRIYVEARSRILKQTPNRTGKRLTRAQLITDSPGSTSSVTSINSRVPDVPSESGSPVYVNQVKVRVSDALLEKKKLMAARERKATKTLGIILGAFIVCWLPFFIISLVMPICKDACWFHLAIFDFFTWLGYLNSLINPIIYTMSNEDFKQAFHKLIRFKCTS

[8] = molecular target: D(1B) dopamine receptor (Homo sapiens) (UniProt P21918); conditions: Compound concentration 10.0 uM
[9] = molecular target: Kappa-type opioid receptor (Homo sapiens, UniProt P41145); conditions: Compound concentration 10.0 uM
Chain of Kappa-type opioid receptor (P41145 whole entry): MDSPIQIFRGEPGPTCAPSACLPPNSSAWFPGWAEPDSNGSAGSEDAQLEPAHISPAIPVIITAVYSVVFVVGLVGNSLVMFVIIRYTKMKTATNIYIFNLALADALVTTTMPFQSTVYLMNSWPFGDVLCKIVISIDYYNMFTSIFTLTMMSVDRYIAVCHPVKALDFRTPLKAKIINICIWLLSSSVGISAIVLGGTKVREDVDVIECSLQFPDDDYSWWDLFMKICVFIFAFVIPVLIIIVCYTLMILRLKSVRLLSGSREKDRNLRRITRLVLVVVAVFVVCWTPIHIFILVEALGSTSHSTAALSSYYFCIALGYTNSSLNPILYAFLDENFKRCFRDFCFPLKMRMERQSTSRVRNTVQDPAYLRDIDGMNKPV

[10] = molecular target: Histamine H3 receptor (Homo sapiens) (UniProt Q9Y5N1); conditions: Compound concentration 10.0 uM
Chain of Histamine H3 receptor (Homo sapiens) (Q9Y5N1 whole entry): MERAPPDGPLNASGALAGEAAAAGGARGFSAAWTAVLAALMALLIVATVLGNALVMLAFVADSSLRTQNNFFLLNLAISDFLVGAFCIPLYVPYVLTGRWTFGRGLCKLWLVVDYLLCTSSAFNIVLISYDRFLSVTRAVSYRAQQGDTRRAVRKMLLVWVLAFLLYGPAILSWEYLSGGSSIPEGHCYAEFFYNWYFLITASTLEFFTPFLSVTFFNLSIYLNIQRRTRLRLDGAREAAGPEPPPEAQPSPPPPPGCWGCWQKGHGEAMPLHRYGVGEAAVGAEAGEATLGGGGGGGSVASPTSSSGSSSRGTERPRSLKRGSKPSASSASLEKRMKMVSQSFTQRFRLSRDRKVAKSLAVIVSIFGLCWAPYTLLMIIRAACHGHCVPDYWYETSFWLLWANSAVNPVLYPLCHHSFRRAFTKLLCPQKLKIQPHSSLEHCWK

[11] = molecular target: T1, 5-hydroxytryptamine receptor 1A (Homo sapiens); conditions: Compound concentration 10.0 uM
[12] = molecular target: T3, 5-hydroxytryptamine receptor 3A (Homo sapiens) (UniProt P46098); conditions: Compound concentration 10.0 uM
T3 sequence (whole entry): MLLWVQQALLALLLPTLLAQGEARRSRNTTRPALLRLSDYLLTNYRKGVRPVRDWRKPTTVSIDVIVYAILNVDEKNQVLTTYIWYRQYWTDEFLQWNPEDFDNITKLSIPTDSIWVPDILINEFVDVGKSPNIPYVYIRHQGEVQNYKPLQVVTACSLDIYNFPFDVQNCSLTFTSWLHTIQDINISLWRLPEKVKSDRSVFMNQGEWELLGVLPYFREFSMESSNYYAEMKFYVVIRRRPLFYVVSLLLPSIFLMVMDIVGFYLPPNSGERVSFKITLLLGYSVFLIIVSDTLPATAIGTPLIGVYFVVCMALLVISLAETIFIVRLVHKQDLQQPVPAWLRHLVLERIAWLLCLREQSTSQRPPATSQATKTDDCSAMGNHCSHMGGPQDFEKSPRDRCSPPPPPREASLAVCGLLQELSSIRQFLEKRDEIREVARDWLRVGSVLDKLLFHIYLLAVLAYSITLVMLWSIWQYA

Rattus norvegicus = species on record: Rattus norvegicus; assay: rKCH Cerep panel
[13] = molecular target: Sigma intracellular receptor 2 (Homo sapiens, UniProt Q5BJF2); conditions: Compound concentration 10.0 uM
Chain of Sigma intracellular receptor 2 (Q5BJF2 whole entry): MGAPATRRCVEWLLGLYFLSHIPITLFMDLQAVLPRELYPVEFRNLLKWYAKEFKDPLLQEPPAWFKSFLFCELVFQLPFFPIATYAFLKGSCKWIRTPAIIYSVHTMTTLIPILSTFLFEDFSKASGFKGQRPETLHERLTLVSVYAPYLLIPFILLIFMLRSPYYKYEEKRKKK

[14] = molecular target: 5-hydroxytryptamine receptor 2A (Homo sapiens) (UniProt P28223); conditions: Compound concentration 10.0 uM
Chain of 5-hydroxytryptamine receptor 2A (Homo sapiens) (P28223 whole entry): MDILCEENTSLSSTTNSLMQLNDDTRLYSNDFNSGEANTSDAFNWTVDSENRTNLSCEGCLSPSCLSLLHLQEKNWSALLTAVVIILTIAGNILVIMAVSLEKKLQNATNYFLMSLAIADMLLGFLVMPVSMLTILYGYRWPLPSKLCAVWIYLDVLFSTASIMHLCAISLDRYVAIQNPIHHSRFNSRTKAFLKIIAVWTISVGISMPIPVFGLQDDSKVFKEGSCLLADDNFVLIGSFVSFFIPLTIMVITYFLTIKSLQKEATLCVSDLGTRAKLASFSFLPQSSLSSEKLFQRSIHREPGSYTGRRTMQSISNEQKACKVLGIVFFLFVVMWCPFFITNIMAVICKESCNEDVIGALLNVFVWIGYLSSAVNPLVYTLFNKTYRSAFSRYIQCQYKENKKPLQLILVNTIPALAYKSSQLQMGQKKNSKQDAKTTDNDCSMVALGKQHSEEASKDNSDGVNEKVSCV

[15] = molecular target: Sodium-dependent noradrenaline transporter (Homo sapiens) (UniProt P23975); conditions: Compound concentration 10.0 uM
[16] = molecular target: 5-hydroxytryptamine receptor 5A (Homo sapiens) (UniProt P47898); conditions: Compound concentration 10.0 uM
Chain of 5-hydroxytryptamine receptor 5A (Homo sapiens) (P47898 whole entry): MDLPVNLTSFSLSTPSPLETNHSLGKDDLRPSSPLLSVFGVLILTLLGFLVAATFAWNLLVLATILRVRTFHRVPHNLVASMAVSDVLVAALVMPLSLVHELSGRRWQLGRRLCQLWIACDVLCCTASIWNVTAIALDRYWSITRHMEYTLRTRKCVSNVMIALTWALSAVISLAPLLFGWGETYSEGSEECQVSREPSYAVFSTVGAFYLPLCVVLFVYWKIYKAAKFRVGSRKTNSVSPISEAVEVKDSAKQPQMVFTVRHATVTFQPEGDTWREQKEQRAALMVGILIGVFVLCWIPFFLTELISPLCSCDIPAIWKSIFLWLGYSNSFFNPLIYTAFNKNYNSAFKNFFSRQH

[17] = molecular target: C-X-C chemokine receptor type 2 (Homo sapiens) (UniProt P25025); assay: hBCXCR2 Cerep panel
[18] = molecular target: Beta-2 adrenergic receptor (Homo sapiens) (UniProt P07550); conditions: Compound concentration 10.0 uM
Chain of Beta-2 adrenergic receptor (Homo sapiens) (P07550 whole entry, looked up): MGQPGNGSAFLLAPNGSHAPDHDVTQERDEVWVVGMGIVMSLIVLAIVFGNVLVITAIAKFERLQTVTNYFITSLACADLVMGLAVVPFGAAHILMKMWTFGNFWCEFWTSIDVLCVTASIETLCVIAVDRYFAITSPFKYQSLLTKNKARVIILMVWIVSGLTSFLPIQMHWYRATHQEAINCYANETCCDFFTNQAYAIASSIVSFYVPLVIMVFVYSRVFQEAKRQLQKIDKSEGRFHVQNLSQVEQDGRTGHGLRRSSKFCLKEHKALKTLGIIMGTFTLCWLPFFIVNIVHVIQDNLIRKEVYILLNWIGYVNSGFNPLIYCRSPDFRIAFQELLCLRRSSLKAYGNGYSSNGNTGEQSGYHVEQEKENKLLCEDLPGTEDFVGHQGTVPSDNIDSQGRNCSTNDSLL

[19] = molecular target: Substance-K receptor (Homo sapiens) (UniProt P21452); assay: hNK2 Cerep panel
[20] = molecular target: Sodium-dependent dopamine transporter (Homo sapiens, UniProt Q01959); conditions: Compound concentration 10.0 uM
Chain of Sodium-dependent dopamine transporter (Q01959 whole entry): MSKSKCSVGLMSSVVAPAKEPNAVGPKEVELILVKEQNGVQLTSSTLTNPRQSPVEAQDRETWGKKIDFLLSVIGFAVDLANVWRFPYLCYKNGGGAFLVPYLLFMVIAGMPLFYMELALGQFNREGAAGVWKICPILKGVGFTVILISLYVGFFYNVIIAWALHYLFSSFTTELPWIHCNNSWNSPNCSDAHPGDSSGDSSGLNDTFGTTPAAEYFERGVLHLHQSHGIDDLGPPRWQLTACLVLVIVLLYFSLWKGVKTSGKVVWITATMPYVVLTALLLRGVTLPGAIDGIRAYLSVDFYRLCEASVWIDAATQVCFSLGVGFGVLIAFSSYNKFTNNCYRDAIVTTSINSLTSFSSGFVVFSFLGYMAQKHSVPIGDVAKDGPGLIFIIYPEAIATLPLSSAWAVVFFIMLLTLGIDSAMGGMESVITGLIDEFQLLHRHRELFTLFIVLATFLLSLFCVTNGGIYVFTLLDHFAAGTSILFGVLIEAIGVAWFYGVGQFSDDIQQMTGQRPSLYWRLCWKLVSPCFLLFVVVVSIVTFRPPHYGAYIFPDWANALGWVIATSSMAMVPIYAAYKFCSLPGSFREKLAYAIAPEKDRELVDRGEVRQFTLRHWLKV

Protein O-GlcNAcase [21] = molecular target: T2, Protein O-GlcNAcase; assay: Cell-based OGA assay
[22] = molecular target: 5-hydroxytryptamine receptor 2B (Homo sapiens) (UniProt P41595); conditions: Compound concentration 10.0 uM
Chain of 5-hydroxytryptamine receptor 2B (Homo sapiens) (P41595 whole entry): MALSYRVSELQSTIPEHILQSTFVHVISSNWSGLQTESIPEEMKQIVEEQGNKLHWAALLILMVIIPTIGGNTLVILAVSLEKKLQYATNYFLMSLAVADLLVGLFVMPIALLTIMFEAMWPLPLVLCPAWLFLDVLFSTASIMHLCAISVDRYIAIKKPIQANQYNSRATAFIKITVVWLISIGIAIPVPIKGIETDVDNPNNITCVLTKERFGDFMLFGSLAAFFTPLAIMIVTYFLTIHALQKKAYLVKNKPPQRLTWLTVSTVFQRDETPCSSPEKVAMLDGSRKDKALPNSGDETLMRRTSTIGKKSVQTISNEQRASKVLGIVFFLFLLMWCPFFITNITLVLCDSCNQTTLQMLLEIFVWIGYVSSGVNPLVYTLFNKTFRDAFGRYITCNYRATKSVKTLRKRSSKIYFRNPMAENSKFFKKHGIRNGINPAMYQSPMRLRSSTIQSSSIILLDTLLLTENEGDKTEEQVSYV

[23] = molecular target: Sigma non-opioid intracellular receptor 1 (Homo sapiens, UniProt Q99720); conditions: Compound concentration 10.0 uM
Chain of Sigma non-opioid intracellular receptor 1 (Q99720 whole entry): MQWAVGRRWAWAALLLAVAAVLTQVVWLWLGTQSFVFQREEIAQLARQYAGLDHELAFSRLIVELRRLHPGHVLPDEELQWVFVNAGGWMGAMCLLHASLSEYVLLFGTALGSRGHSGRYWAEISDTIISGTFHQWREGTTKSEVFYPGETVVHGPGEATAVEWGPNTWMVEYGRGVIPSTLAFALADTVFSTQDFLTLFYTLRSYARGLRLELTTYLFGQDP

Row | SMILES | IC50 (Protein O-GlcNAcase [6]) | inhibition [7] | inhibition [9] | inhibition [10] | inhibition [11] | inhibition [12] | inhibition [13] | inhibition [14] | inhibition [15] | inhibition [16] | inhibition [18] | inhibition [20] | inhibition [22] | inhibition [23] | other results
1 | CC(=O)Nc1ncc(CN2CCC[C@H](Cc3cc(C)nc(C)c3)C2)s1 [JNJ-65355394] | 1.3 nM (active) | -2.53% | 75.1% | 10.8% | 22.2% | 6.87% | 19% | -2.94% | 12.7% | 18.7% | -5.16% | 13.4% | 6.7% | 46.5% | effect [1]: 4.2%; effect [2]: 9.45%; effect [3]: 5.75%; effect [4]: 10%; effect [5]: 1.3%; inhibition [8]: 7.69%; effect (Rattus norvegicus): 1%; effect [17]: 0.85%; effect [19]: 4.5%; IC50 (Protein O-GlcNAcase [21]): 3.9 nM (active)
2 | CC(=O)Nc1nc(CN2CCC[C@H](Cc3cc(C)nc(C)c3)C2)cs1 [JNJ-73924149] | > 10000 nM (not active) | 4.01% | 17.9% | 27.1% | 12.3% | 20.7% | 59.6% | 6.45% | 17.8% | 17.8% | -8.1% | 81.9% | 17.9% | 101% | 
